Data reported in patent US20220120732A1, “TREATMENT OF DISEASES WITH MULTIMERIC PEPTIDES” (Ramot at Tel-Aviv University Ltd., priority 2019, published 2022).
Bridges are numbered along the chain shown (N, C = ends). Roman numbers before positions name the chains, in order. Where no end group is shown, it is not given here.

Test system: normal stroma cells
Experiment: Cell density, patient-derived stromal cells with autologous PBMC and C24D
Type: cell-based, human
Settings: autologous PBMCs + C24D; FIGS. 5A-B
Source text: Patient-derived tumor primary culture medium: Medium D: DMEM/F12 (1:1, v/v) supplemented with 10% FBS and 1% antibiotics/antimycotic (100×. Medium M: Medium 171 supplemented with 1% MEGS (100×), and 1% antibiotics/antimycotics. Medium DB: mixed from medium D and medium M (1:1, v/v).
Tumor biopsies, all from different patients, were collected after obtaining the patients' consent and were transported to the laboratory. Excess adipose tissue was pared off the tumor samples, following which the samples were sliced into small fragments (approximately 1-2 mm^2) by using a scalpel. The fragments were seeded per 10 cm^2 Petri dishes in DB medium. The Petri dishes were incubated at 37° C. with 5% CO2 and monitored daily to record the time of cell appearance and the cell morphology. The medium was replaced every 3 days. Approximately two weeks after primary culture incubation, cells were trypsinized and cultured in Petri dishes according to the below protocol.
Day 1: 4×10^5 tumor cells from the cell line or tumor and stroma cells derived from patient's biopsies were incubated in the respective growth medium in 6 well plates overnight or Petri dishes. Day 2: 3 hours prior to addition of PBMC of healthy female donors or from autologous patients, DMEM medium was changed to RPMI medium. […]

- effect on normal stroma cells of the same patient: no effect
Substance: I: CGHHLLRPRRRKRPHSIPTPILIFRSP / II: CGHHLLRPRRRKRPHSIPTPILIFRSP (disulfide I:1-II:1) [C24D]
